Experimental data published in PubChem BioAssay (NCI).
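Results reflect a 48-hour exposure of cells in 96-well plates to compound at five concentrations. Here, GI50 denotes the concentration required for 50% inhibition of growth. At the TGI there is no net growth.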

What was measured:
Test in all cases: growth of human tumour cells (NCI), 48 h
[1] = tested on: SNB-19 CNS
[2] = tested on: SK-MEL-5 melanoma
[3] = tested on: PC-3 prostate
[4] = tested on: OVCAR-3 ovarian
[5] = tested on: LOX IMVI melanoma
[6] = tested on: OVCAR-4 ovarian
[7] = tested on: ACHN renal
[8] = tested on: OVCAR-5 ovarian
[9] = tested on: SNB-75 CNS
[10] = tested on: A498 renal

Molecule `C=C1CCC2C(/C=C(\C)CCC1O)OC(=O)C2C` (centres undefined) has a GI50 [1] of over 100 µM, a TGI [1] of over 100 µM and a GI50 [2] of over 100 µM. It also gave a TGI [2] of over 100 µM, a GI50 [3] of over 100 µM and a TGI [3] of over 100 µM. For the same molecule, the GI50 [4] was over 100 µM, the TGI [4] was over 100 µM and the GI50 [5] was over 100 µM. The TGI [5] was over 100 µM, the GI50 [6] was over 100 µM and the TGI [6] was over 100 µM. The GI50 [7] was over 100 µM, the TGI [7] was over 100 µM and the GI50 [8] was over 100 µM. The TGI [8] was over 100 µM, the GI50 [9] was over 100 µM and the TGI [9] was over 100 µM.
Work on `COC(=O)C(C#N)=C1c2ccccc2Oc2ccccc21` yielded a TGI [1] of over 100 µM, a TGI [2] of over 100 µM and a TGI [10] of over 100 µM. For the same molecule, the TGI [4] was 73.1 µM, the TGI [5] was over 100 µM and the TGI [6] was over 100 µM. For the same molecule, the TGI [7] was over 100 µM, the TGI [8] was over 100 µM and the TGI [9] was over 100 µM.
`Cc1ccccc1C(C#N)C(=O)C(=O)Nc1nc([N+](=O)[O-])cs1` (centres undefined) gave a TGI [1] of over 100 µM, a TGI [2] of over 100 µM and a TGI [10] of over 100 µM. For the same molecule, the TGI [4] was over 100 µM, the TGI [5] was over 100 µM and the TGI [6] was over 100 µM. It also gave a TGI [7] of over 100 µM, a TGI [8] of over 100 µM and a TGI [9] of over 100 µM.
`O=C1NC2(CCCC2)C(=O)C12CCCC2` was tested, and the TGI [1] was over 100 µM, the TGI [2] was over 100 µM and the TGI [10] was over 100 µM. The TGI [4] was over 100 µM, the TGI [5] was over 100 µM and the TGI [6] was over 100 µM. For the same molecule, the TGI [7] was over 100 µM, the TGI [8] was over 100 µM and the TGI [9] was over 100 µM.
In the case of `C=C1C(O)C2CCC(C)(C)C(=O)C2=C(CC(C)C)C12CC2` (centres undefined), the GI50 [1] is reported as 59.5 µM, the TGI [1] is reported as over 100 µM and the GI50 [2] is reported as 24.8 µM. It also gave a TGI [2] of over 100 µM, a GI50 [3] of 33.2 µM and a TGI [3] of over 100 µM. For the same molecule, the GI50 [4] was 34.7 µM, the TGI [4] was over 100 µM and the GI50 [5] was 68.5 µM. The TGI [5] was over 100 µM, the GI50 [6] was over 100 µM and the TGI [6] was over 100 µM. It also gave a GI50 [7] of 39.3 µM, a TGI [7] of over 100 µM and a GI50 [8] of over 100 µM. It also gave a TGI [8] of over 100 µM, a GI50 [9] of 93.1 µM and a TGI [9] of over 100 µM.
Work on `O=C(/C=C/c1ccccc1)/C=C/c1ccccc1O` yielded a TGI [1] of 61.5 µM, a TGI [2] of 41.6 µM and a TGI [10] of 70.9 µM. For the same molecule, the TGI [4] was 0.842 µM, the TGI [5] was 33.8 µM and the TGI [7] was 42.1 µM. For the same molecule, the TGI [8] was 65.3 µM.
`Oc1ccccc1/C=N/Nc1ccc2ccccc2n1` was tested, and the GI50 [1] was 5.39 µM, the TGI [1] was over 100 µM and the GI50 [2] was 4.12 µM. The TGI [2] was over 100 µM, the GI50 [10] was 7.03 µM and the TGI [10] was over 100 µM. The GI50 [3] was 4.5 µM, the TGI [3] was over 100 µM and the GI50 [4] was 2.82 µM. The TGI [4] was 13.8 µM, the GI50 [6] was 2.42 µM and the TGI [6] was 18.6 µM. For the same molecule, the GI50 [7] was 2.86 µM, the TGI [7] was 68.6 µM and the GI50 [8] was 8.31 µM. It also gave a TGI [8] of over 100 µM, a GI50 [9] of 2.01 µM and a TGI [9] of 20.4 µM.
Molecule `O=C(c1ccc2ccccc2c1)c1c(C(F)(F)F)n([O-])c2cc(Cl)c(Cl)cc2[n+]1=O` has a GI50 [2] of 1.6 µM, a TGI [2] of 2.94 µM and a GI50 [10] of 1.96 µM. For the same molecule, the TGI [10] was 4.68 µM, the GI50 [4] was 1.39 µM and the TGI [4] was 2.69 µM. The GI50 [5] was 1.17 µM, the TGI [5] was 2.4 µM and the GI50 [6] was 1.54 µM. The TGI [6] was 3.17 µM, the GI50 [7] was 1.59 µM and the TGI [7] was 2.94 µM. It also gave a GI50 [8] of 1.65 µM, a TGI [8] of 3.01 µM and a GI50 [9] of 1.48 µM. For the same molecule, the TGI [9] was 2.8 µM.
In the case of `CCOC(=O)C1(CC)CCCCC(=O)N1` (centres undefined), the TGI [4] is reported as over 100 µM, the TGI [5] is reported as over 100 µM and the TGI [6] is reported as over 100 µM. The TGI [7] was over 100 µM.
`CC(=O)[CH-]C(=O)c1ccccc1.CC(=O)[CH-]C(=O)c1ccccc1.CCCCCCCCCCCCCCCCCC(=O)[O-].CCCCCCCCCCCCCCCCCC(=O)[O-].[Ti+4]` showed a GI50 [1] of 17.5 µM, a TGI [1] of 33.6 µM and a GI50 [2] of 21 µM. For the same molecule, the TGI [2] was 48.2 µM, the GI50 [10] was 25.7 µM and the TGI [10] was 68.5 µM. The GI50 [4] was 18.9 µM, the TGI [4] was 38 µM and the GI50 [5] was 18 µM. The TGI [5] was 35.9 µM, the GI50 [6] was 16.6 µM and the TGI [6] was 31.8 µM. The GI50 [8] was 36.7 µM, the TGI [8] was over 100 µM and the GI50 [9] was 11.7 µM. It also gave a TGI [9] of 25.5 µM.
In the case of `CSC1=NC=CCN1C`, the TGI [1] is reported as over 100 µM, the TGI [2] is reported as over 100 µM and the TGI [10] is reported as over 100 µM. For the same molecule, the TGI [4] was over 100 µM, the TGI [5] was over 100 µM and the TGI [6] was over 100 µM. The TGI [7] was over 100 µM, the TGI [8] was over 100 µM and the TGI [9] was over 100 µM.
In the case of `C=CC1=CSNN1`, the TGI [1] is reported as over 100 µM, the TGI [2] is reported as over 100 µM and the TGI [10] is reported as over 100 µM. For the same molecule, the TGI [4] was over 100 µM, the TGI [5] was over 100 µM and the TGI [6] was over 100 µM. For the same molecule, the TGI [7] was over 100 µM, the TGI [8] was over 100 µM and the TGI [9] was over 100 µM.
With `N#Cc1c(-c2cccs2)c2c(=S)[nH]c(=S)[nH]c2[nH]c1=S` the GI50 [1] was 75.7 µM, the TGI [1] was over 100 µM and the GI50 [2] was 17.2 µM. The TGI [2] was 33.9 µM, the GI50 [3] was 30.8 µM and the TGI [3] was over 100 µM. For the same molecule, the GI50 [4] was 34.5 µM, the TGI [4] was 98.8 µM and the GI50 [5] was 18.2 µM. The TGI [5] was 39.8 µM, the GI50 [6] was 53 µM and the TGI [6] was over 100 µM. For the same molecule, the GI50 [7] was 23.8 µM, the TGI [7] was 67.6 µM and the GI50 [8] was over 100 µM. The TGI [8] was over 100 µM, the GI50 [9] was over 100 µM and the TGI [9] was over 100 µM.
In the case of `C#CCNC(=O)NC(CCCNC(=O)OCc1ccccc1)C(=O)OCc1ccccc1` (centres undefined), the TGI [1] is reported as over 100 µM, the TGI [2] is reported as over 100 µM and the TGI [10] is reported as over 100 µM. For the same molecule, the TGI [4] was over 100 µM, the TGI [5] was over 100 µM and the TGI [6] was over 100 µM. The TGI [7] was over 100 µM, the TGI [8] was over 100 µM and the TGI [9] was over 100 µM.
For `COC(=O)C(c1[nH]nc2ccccc12)C(C(=O)OC)c1[nH]nc2ccccc12` (centres undefined), the TGI [1] was over 100 µM, the TGI [10] was over 100 µM and the TGI [4] was over 100 µM. For the same molecule, the TGI [5] was over 100 µM, the TGI [6] was 53.4 µM and the TGI [7] was over 100 µM. For the same molecule, the TGI [8] was over 100 µM and the TGI [9] was over 100 µM.
`COc1ccc(-c2cc(-c3cc(Cl)ccc3Cl)nc3[nH]c(-c4cc(F)c(Cl)cc4Cl)cc(=O)c23)cc1` was tested, and the GI50 [1] was 64.1 µM, the TGI [1] was over 100 µM and the GI50 [2] was 7.63 µM. For the same molecule, the TGI [2] was 33.4 µM, the GI50 [3] was 39.3 µM and the TGI [3] was over 100 µM. It also gave a GI50 [4] of over 100 µM, a TGI [4] of over 100 µM and a GI50 [5] of 15.3 µM. The TGI [5] was 34.4 µM, the GI50 [6] was over 100 µM and the TGI [6] was over 100 µM. For the same molecule, the GI50 [7] was 19.9 µM, the TGI [7] was 69 µM and the GI50 [8] was 22.2 µM. The TGI [8] was 89.2 µM, the GI50 [9] was over 100 µM and the TGI [9] was over 100 µM.
`CCC(C)C1NC(=O)c2nc(oc2-c2ccccc2)-c2csc(n2)-c2csc(n2)-c2nc(oc2C)-c2coc(n2)CNC(=O)C(C(C)CC)NC1=O` (centres undefined) showed a GI50 [10] of 0.16 µM, a TGI [10] of 0.343 µM and a GI50 [3] of under 0.0137 µM. For the same molecule, the TGI [3] was 0.116 µM, the GI50 [4] was 0.0201 µM and the TGI [4] was 0.0642 µM. It also gave a GI50 [6] of 0.0258 µM, a TGI [6] of 0.0982 µM and a GI50 [7] of 0.0188 µM. The TGI [7] was 0.114 µM, the GI50 [8] was 0.0515 µM and the TGI [8] was 0.189 µM. For the same molecule, the GI50 [9] was 0.0354 µM and the TGI [9] was 0.175 µM.
